According to article PMC4306947, “Synthesis and Antiproliferative Activity of Thiazolyl-bis-pyrrolo[2,3-b]pyridines and Indolyl-thiazolyl-pyrrolo[2,3-c]pyridines, Nortopsentin Analogues” (Marine Drugs, 2015):

How the values were obtained:
LOX IMVI = experiment: NCI-60 in vitro tumor cell screen, LOX IMVI; assay type: cell-based; details: Homo sapiens, Melanoma
Description: (§1) All the synthesized thiazoles 1a–l, 2a–j, 3a–f and 4a–f were evaluated by the National Cancer Institute (Bethesda MD) for cytotoxicity against the NCI-60 cell line panel using standard protocols. Initially, all derivatives were tested at a single dose (10^−5 M) on the full panel of approximately 60 human tumor cell lines derived from 9 human cancer cell types, that have been grouped in disease sub-panels including leukemia, non-small-cell lung, colon, central nervous system (CNS), melanoma, ovarian, renal, prostate and breast cancers (data not shown). Compounds 1k and 4c were further selected for full evaluation at five concentration levels (10^−4–10^−8 M).
(§2) The antitumor activity of compounds 1k and 4c was given by three parameters for each cell line: GI50 (GI50 is the molar concentration of the compound that inhibits 50% net cell growth), TGI (TGI is the molar concentration of the compound leading to total inhibition of net cell growth), and LC50 (LC50 is the molar concentration of the compound that induces 50% net cell death). The average values of mean graph midpoint (MG_MID) were calculated for each of these parameters.

HOP-62 = experiment: NCI-60 in vitro tumor cell screen, HOP-62; assay type: cell-based; details: Homo sapiens; HOP-62, Non-Small Cell Lung Cancer
Description: as §1, §2

HCT-116 cells [1] = experiment: Mitochondrial transmembrane potential (DiOC6 flow cytofluorometry); assay type: cell-based, human; details: 24 h
Description: Changes of mitochondrial transmembrane potential (Δψm) were assessed by flow cytofluorometry, using the cationic lipophilic dye 3,3′-dihexyloxacarbocyanine iodide(3) (DiOC6) (Molecular Probes, Inc., Life Technologies Italia, Monza, Italy) which accumulates in the mitochondrial matrix. Changes in mitochondrial membrane potential are indicated by a reduction in the DiOC6-induced fluorescence intensity. After 24 h treatment, HCT116 cells were incubated with DiOC6 at a 40 nmol/L final concentration, for 15 min at 37 °C. After centrifugation, cells were washed with PBS and suspended in 500 μL PBS. Fluorescent intensities were analysed in at least 1 × 10^4 cells for each sample.

RXF393 = experiment: NCI-60 in vitro tumor cell screen, RXF393; assay type: cell-based; details: Homo sapiens, RXF 393; RXF393, Renal Cancer
Description: as §1, §2

HOP-92 = experiment: NCI-60 in vitro tumor cell screen, HOP-92; assay type: cell-based; details: Homo sapiens; HOP-92, Non-Small Cell Lung Cancer
Description: as §1, §2

NCI-H460 = experiment: NCI-60 in vitro tumor cell screen, NCI-H460; assay type: cell-based; details: Homo sapiens; NCI-H460, Non-Small Cell Lung Cancer
Description: as §1, §2

ACHN = experiment: NCI-60 in vitro tumor cell screen, ACHN; assay type: cell-based; details: Homo sapiens, Renal Cancer
Description: as §1, §2

HCT-116 cells [2] = experiment: Cell cycle analysis by flow cytometry (propidium iodide); assay type: cell-based, human; details: 24 h, concentrations above and below GI50
Description: Cell cycle stage was analyzed by flow cytometry. HCT-116 cells (5.0 × 10^4 cells/cm^2) were seeded in triplicate in 24-wells culture plates. After an overnight incubation, the cells were washed with fresh medium and incubated with compounds 1k and 4c in RPMI for 24 h. Then cells were harvested by trypsinization. Aliquots of 1 × 10^6 cells were washed with PBS and incubated in the dark in a PBS solution containing 20 μg/mL propidium iodide (PI) and 200 μg/mL RNase, for 30 min, at room temperature. Then samples of at least 1.0 × 10^4 cells were subjected to fluorescence-activated cell sorting (FACS) analysis by Epics XL™ flow cytometer using Expo32 software (Beckman Coulter, Fullerton, CA, USA).

PC-3 = experiment: NCI-60 in vitro tumor cell screen, PC-3; assay type: cell-based; details: Homo sapiens; PC-3, Prostate Cancer
Description: as §1, §2

[3] = system: HCT-116 colorectal carcinoma cells; experiment: MTT viability assay, HCT-116 cells, 24 h; assay type: cell-based; details: Homo sapiens, 5–100 μM, read-out: GI50 after 24 h treatment
Description: Nortopsentin analogues, prepared as described above, were dissolved in dimethyl sulfoxide (DMSO) and then diluted in culture medium to have a DMSO concentration not exceeding 0.1%. HCT-116 and Caco-2 cell lines were purchased from American Type Culture Collection, Rockville, MD, USA and DMEM supplemented with […], […] bovine serum (FBS), penicillin (100 U/mL), streptomycin (100 μg/mL) and gentamicin (5 μg/mL). Cells were maintained in log phase by seeding twice a week at a density of 3 × 10^8 cells/L in humidified 5% CO2 atmosphere, at 37 °C. In all experiments, HCT-116 cells were made quiescent through overnight incubation before treatment with tested compounds or vehicle alone (control cells), while Caco-2 cells were treated 15 days after confluence, at which time the cells are differentiated in normal intestinal-like cells. […]
Cytotoxic activity of the nortopsentin derivatives 1k and 4c was determined by the colorimetric assay based on the reduction of […] (MTT) to purple formazan by mitochondrial dehydrogenases. […] Cells were incubated 2 h at 37 °C, then medium was discarded by centrifugation, formazan blue formed in the cells dissolved in DMSO, and absorbance measured at 570 nm in a microplate reader (Bio-RAD, Hercules, CA, USA). […] GI50 was calculated by the curve of percent viability vs. concentration. […]

MDA-MB-231/ATCC = experiment: NCI-60 in vitro tumor cell screen, MDA-MB-231/ATCC; assay type: cell-based; details: Homo sapiens, Breast Cancer
Description: as §1, §2

HL-60(TB) = experiment: NCI-60 in vitro tumor cell screen, HL-60(TB); assay type: cell-based; details: Homo sapiens, Leukemia
Description: as §1, §2

SF-539 = experiment: NCI-60 in vitro tumor cell screen, SF-539; assay type: cell-based; details: Homo sapiens; SF-539, CNS Cancer
Description: as §1, §2

BT-549 = experiment: NCI-60 in vitro tumor cell screen, BT-549; assay type: cell-based; details: Homo sapiens; BT-549, Breast Cancer
Description: as §1, §2

OVCAR-3 = experiment: NCI-60 in vitro tumor cell screen, OVCAR-3; assay type: cell-based; details: Homo sapiens; OVCAR-3, Ovarian Cancer
Description: as §1, §2

NCI-H23 = experiment: NCI-60 in vitro tumor cell screen, NCI-H23; assay type: cell-based; details: Homo sapiens; NCI-H23, Non-Small Cell Lung Cancer
Description: as §1, §2

OVCAR-4 = experiment: NCI-60 in vitro tumor cell screen, OVCAR-4; assay type: cell-based; details: Homo sapiens; OVCAR-4, Ovarian Cancer
Description: as §1, §2

NCI-H522 = experiment: NCI-60 in vitro tumor cell screen, NCI-H522; assay type: cell-based; details: Homo sapiens; NCI-H522, Non-Small Cell Lung Cancer
Description: as §1, §2

[4] = concentration GI30, control 3.9%
[5] = concentration GI70, control 3.9%

| SMILES | GI50 (LOX IMVI) [nM] | GI50 (HOP-62) [nM] | mitochondrial transmembrane potential (Δψm) loss, AQ (HCT-116 cells [1]; [4]) [%] | mitochondrial transmembrane potential (Δψm) loss, AQ (HCT-116 cells [1]; [5]) [%] | GI50 (RXF393) [nM] | GI50 (HOP-92) [nM] | GI50 (NCI-H460) [nM] | GI50 (ACHN) [nM] | alteration of cell cycle distribution (HCT-116 cells [2]) | GI50 (PC-3) [nM] | GI50 [3] [nM] | GI50 (MDA-MB-231/ATCC) [nM] | GI50 (HL-60(TB)) [nM] | GI50 (SF-539) [nM] | GI50 (BT-549) [nM] | GI50 (OVCAR-3) [nM] | GI50 (NCI-H23) [nM] | GI50 (OVCAR-4) [nM] | GI50 (NCI-H522) [nM] |
| --- | --- | --- | --- | --- | --- | --- | --- | --- | --- | --- | --- | --- | --- | --- | --- | --- | --- | --- | --- |
| Cn1cc(-c2csc(-c3c[nH]c4ncccc34)n2)c2cc(Br)cnc21 [Compound 1k, 5-Bromo-1-methyl-3-[2-(1H-pyrrolo[2,3-b]pyridin-3-yl)-1,3-thiazol-4-yl]-1H-pyrrolo[2,3-b]pyridine] | 4260 | 2390 | 26.0 | 35.3 | 2050 | 5030 | 2980 | 2350 | dose-dependent accumulation of cells in G2/M phase | 4350 | 33600 ± 2310 | 3020 | > 100000 | 27700 | 20500 | 2910 | 2800 | 2030 | 4860 |
| Clc1nccc2c(-c3csc(-c4c[nH]c5ccc(Br)cc45)n3)c[nH]c12 [Compound 4c, 3-[2-(5-Bromo-1H-indol-3-yl)-1,3-thiazol-4-yl]-7-chloro-1H-pyrrolo[2,3-c]pyridine] | 1630 | 2110 | 3.8 | 14.7 | 1480 | 2430 | 2160 | 2020 | dose-dependent accumulation of cells in G1 phase | 3860 | 13200 ± 950 | 1680 | 2640 | 1870 | 4700 | 3450 | 2420 | 3250 | 2280 |
